Source: patent US6593340B1, “Pharmaceutical compositions containing N-propargylphentermine and related analogs to treat neurodegeneration and/or depression” (CV Technologies, Inc., priority 2000, dated 2003)
Where two headings read alike, the source gives them in different places.

How the values were obtained:
[1] = target: T1, rat brain monoamine oxidase-A (Rattus norvegicus, UniProt P21396); assay: Monoamine oxidase-A-inhibiting activity in vitro (radiochemical, 5-hydroxytryptamine substrate); assay type: biochemical
T1 construct: incubated in appropriately diluted homogenates of rat brain or liver; from tissue; host or cells: rat brain or liver homogenate
T1 sequence (P21396 1-526): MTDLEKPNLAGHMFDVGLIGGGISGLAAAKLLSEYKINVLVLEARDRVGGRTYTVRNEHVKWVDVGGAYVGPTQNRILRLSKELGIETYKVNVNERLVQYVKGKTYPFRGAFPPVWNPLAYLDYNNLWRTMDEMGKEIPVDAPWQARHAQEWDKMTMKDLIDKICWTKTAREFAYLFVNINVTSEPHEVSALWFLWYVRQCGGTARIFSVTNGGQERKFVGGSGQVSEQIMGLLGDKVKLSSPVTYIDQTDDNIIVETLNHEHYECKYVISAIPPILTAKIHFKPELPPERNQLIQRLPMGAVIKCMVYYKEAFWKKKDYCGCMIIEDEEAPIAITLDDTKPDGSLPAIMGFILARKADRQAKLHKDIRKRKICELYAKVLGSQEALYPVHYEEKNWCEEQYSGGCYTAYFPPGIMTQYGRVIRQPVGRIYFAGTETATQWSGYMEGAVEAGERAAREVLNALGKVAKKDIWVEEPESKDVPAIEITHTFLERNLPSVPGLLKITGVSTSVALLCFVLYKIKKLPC
Procedure: The compounds were evaluated for in vitro monoamine oxidase-A-inhibiting activity using the radiochemical procedure of Lyles and Callingham (1982) employing radiolabeled 5-hydroxytryptamine as substrate for monoamine oxidase-A. Various concentrations of the compounds of interest were incubated in appropriately diluted homogenates of rat brain or liver in a 0.2 M potassium phosphate buffer. Incubations proceeded at 37° C. for 10 minutes. Incubation was terminated by the addition of acid and the radiolabeled product (5-hydroxyindoleacetic acid) was extracted and quantified by liquid scintillation counting procedures. […] The percent inhibition of monoamine oxidase-A activity compared to controls containing no drug was calculated.

[2] = test system: rat brain and liver monoamine oxidase-A; assay: Monoamine oxidase-A-inhibiting activity ex vivo; assay type: in vivo; conditions: for % Inhibition Monoamine Oxidase-A: 7 days following injection, i.p., 10 mg/kg combined with DSP4 50 mg/kg; for effect on monoamine oxidase-A activity in the brain or liver: seven days after administration
[3] = target: T2, rat brain monoamine oxidase-B (Rattus norvegicus, UniProt P19643); assay: Monoamine oxidase-B-inhibiting activity in vitro (radiochemical, β-phenylethylamine substrate); assay type: biochemical
T2 construct: incubated in appropriately diluted homogenates of rat brain or liver; from tissue; host or cells: rat brain or liver homogenate
T2 sequence (P19643 1-520): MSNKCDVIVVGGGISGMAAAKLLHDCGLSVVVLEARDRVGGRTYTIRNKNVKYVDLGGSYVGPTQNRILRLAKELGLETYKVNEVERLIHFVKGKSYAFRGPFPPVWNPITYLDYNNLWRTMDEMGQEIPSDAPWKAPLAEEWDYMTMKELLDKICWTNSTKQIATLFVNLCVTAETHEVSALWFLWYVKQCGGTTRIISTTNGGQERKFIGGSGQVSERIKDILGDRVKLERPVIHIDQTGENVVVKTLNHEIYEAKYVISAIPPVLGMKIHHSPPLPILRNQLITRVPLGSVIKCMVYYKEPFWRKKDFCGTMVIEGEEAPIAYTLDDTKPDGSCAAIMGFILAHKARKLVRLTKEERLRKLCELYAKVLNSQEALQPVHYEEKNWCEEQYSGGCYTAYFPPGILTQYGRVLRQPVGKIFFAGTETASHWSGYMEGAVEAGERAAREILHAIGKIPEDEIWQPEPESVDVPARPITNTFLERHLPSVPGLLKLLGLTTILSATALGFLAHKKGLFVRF
Procedure: The compounds were evaluated for in vitro monoamine oxidase-B inhibiting activity using the radiochemical procedure of Lyles and Callingham (1982) employing radiolabeled β-phenylethylamine as substrate for monoamine oxidase-B. Various concentrations of the compounds of interest were incubated in appropriately diluted homogenates of rat brain or liver in a 0.2 M potassium phosphate buffer. Incubations proceeded at 37° C. for 10 minutes. Incubation was terminated by the addition of hydrochloric acid and the radiolabeled product (phenylacetic acid) was extracted and quantified by liquid scintillation counting procedures. […] The percent inhibition of monoamine oxidase-B activity compared to controls containing no drug was calculated. Reference: Lyles, G. A. and Callingham, B. A. (1982). In vitro and in vivo inhibition by benserazide of clorgyline-resistant amine exodiases in rat cardiovascular tissues. Biochem. Pharmacol, 31:1417-1424.

[4] = test system: rat brain and liver monoamine oxidase-B; assay: Monoamine oxidase-B-inhibiting activity ex vivo; assay type: in vivo; conditions: for % Inhibition Monoamine Oxidase-B: 7 days following injection, i.p., combined with DSP4 50 mg/kg; for effect on monoamine oxidase-B activity in the brain or liver: seven days after administration
Procedure: The compounds were evaluated for ex vivo monoamine oxidase-B-inhibiting activity using the radiochemical procedure of Lyles and Callingham (1982) employing radiolabeled β-phenylethylamine as substrate for monoamine oxidase-B. The compounds of interest were injected intraperitoneally in water. Animals were killed by decapitation and the brains and livers immediately removed and frozen until assay for monoamine oxidase-B activity. Tissues were homogenized and appropriately diluted in buffer prior to incubation. Incubations proceeded at 37° C. for 10 minutes. Incubation was terminated by the addition of acid and the radiolabeled product (phenylacetic acid) was extracted and quantified by liquid scintillation counting procedures. […] The percent inhibition of monoamine oxidase-B activity compared to controls containing no drug was calculated. Reference: Lyles, G. A. and Callingham, B. A. (1982). […] Biochaem. Pharmacol. 31:1417-1424.
Neuroprotectant activity was evaluated by examining the prevention of DSP-4 induced noradrenaline depletion in mouse hippocampus as described previously (Yu et al., 1994). Briefly, mice were injected (i.p.) with either water or potential neuroprotectants (10 mg/kg in water). One hour later they were injected with either water or DSP-4 (50 mg/kg in water). One week later the mice were killed and the brains removed and the hippocampus dissected out. The hippocampus was frozen and saved for estimation of noradrenaline and other amine neurotransmitters and their metabolites (Sloley and Goldberg, 1991). The rest of the brain and the liver were frozen and retained for estimation of monoamine oxidase activities ex vivo as described earlier. […] 63:1820-1828. Sloley, B. D. and Goldberg J. I. (1991), Determination of y-glutamyl conjugates of monoamines by means of high-performance liquid chromatography with electrochemical detection and application to gastropod tissues, J. Chromatog. 567:49-56.

[5] = test system: DSP-4 induced noradrenaline depletion in mouse hippocampus; assay: Prevention of DSP-4 neurotoxicity ex vivo (noradrenaline depletion); assay type: in vivo; conditions: 10 mg/kg i.p.; for % NA Restoration: then DSP-4 50 mg/kg one hour later, one week
Procedure: Neuroprotectant activity was evaluated by examining the prevention of DSP-4 induced noradrenaline depletion in mouse hippocampus as described previously (Yu et al., 1994). Briefly, mice were injected (i.p.) with either water or potential neuroprotectants (10 mg/kg in water). One hour later they were injected with either water or DSP-4 (50 mg/kg in water). One week later the mice were killed and the brains removed and the hippocampus dissected out. The hippocampus was frozen and saved for estimation of noradrenaline and other amine neurotransmitters and their metabolites (Sloley and Goldberg, 1991). The rest of the brain and the liver were frozen and retained for estimation of monoamine oxidase activities ex vivo as described earlier. […] References: Yu, P. H., Davis, B. A., Fang, J. and Boulton, A. A. (1994), Neuroprotective effect of some monoamine oxidase-B inhibitors against DSP-4 induced noradrenaline depletion in the mouse hippocampus, J. Neurochem. 63:1820-1828. Sloley, B. D. and Goldberg J. I. (1991), Determination of y-glutamyl conjugates of monoamines by means of high-performance liquid chromatography with electrochemical detection and application to gastropod tissues, J. Chromatog. 567:49-56.

[6] = test system: noradrenaline uptake into rat hippocampal prisms; assay: Inhibition of noradrenaline uptake in vitro; assay type: cell-based; parameters: dose or concentration left out as unconfirmed
Procedure: The ability of N-propargylphetermine and related derivatives to inhibit monoamine uptake was evaluated in vitro by examining the effects of said compounds on the uptake of radiolabeled noradrenaline and serotonin into fresh rat hippocampal and striatal prisms, respectively according to the method described in Martin et al., (1978). Animals were killed by decapitation and the hippocampus or striatum were removed and placed in ice cold incubation medium. Prisms were prepared using a tissue chopper, resuspended in 800 volumes of incubation medium containing 12.5 μM nialamide to inhibit amine metabolism and stored on ice until used. 0.8 ml of ice cold prism of suspension per test tube was used. Each test tube was pre-incubated for 5 minutes at 37° C. At this time each test tube was placed on ice and the appropriate drug solution or control was added. This was rapidly followed by the addition of the radiolabled amine (titrated noradrenaline or serotonin, 0.01 μM, specific activity about 13.5 Ci/mmol). The mixture was incubated for 10 minutes at 37° C. The incubations were then filtered and washed using a cell harvester and the radioactivity retained on the filters was measured using a scintillation counter. The percent inhibition of amine uptake compared to controls containing no drug was calculated. Reference: Maretin I. L., Baker G. B. and Mitchell, P. R. (1978). The effect of viloxaine hydrochloride on the transport of noradenaline, dopamine, 5-hydroxytryptamine and gamma-amino-butyric acid in rat brain tissue. Neuropharmacology 17:421-423.

[7] = test system: serotonin (5-HT) uptake into rat striatal prisms; assay: Inhibition of serotonin uptake in vitro; assay type: cell-based; parameters: dose or concentration left out as unconfirmed
Procedure: Animals were killed by decapitation and the hippocampus or striatum were removed and placed in ice cold incubation medium. […] 0.8 ml of ice cold prism of suspension per test tube was used. Each test tube was pre-incubated for 5 minutes at 37° C. At this time each test tube was placed on ice and the appropriate drug solution or control was added. This was rapidly followed by the addition of the radiolabled amine (titrated noradrenaline or serotonin, 0.01 μM, specific activity about 13.5 Ci/mmol). The mixture was incubated for 10 minutes at 37° C. The incubations were then filtered and washed using a cell harvester and the radioactivity retained on the filters was measured using a scintillation counter. The percent inhibition of amine uptake compared to controls containing no drug was calculated. […] The effect of viloxaine hydrochloride on the transport of noradenaline, dopamine, 5-hydroxytryptamine and gamma-amino-butyric acid in rat brain tissue.

Row | Compound | IC50 [1] [µM] | % Inhibition Monoamine Oxidase-A ([2]; brain) [%] | % Inhibition Monoamine Oxidase-A ([2]; liver) [%] | effect on monoamine oxidase-A activity in the brain or liver [2] | IC50 [3] [µM] | % Inhibition Monoamine Oxidase-B ([4]; brain) [%] | % Inhibition Monoamine Oxidase-B ([4]; liver) [%] | effect on monoamine oxidase-B activity in the brain or liver [4] | protection against DSP-4-induced noradrenaline depletion [5] | % NA Restoration ([5]; Table 5 experiment) [%] | % inhibition NA uptake [6] [%] | % inhibition 5-HT uptake [7] [%] | % NA Restoration ([5]; Table 6 experiment) [%] | IC50 ([1]; in vitro, rat brain homogenate, read-out: IC50 for inhibition of monoamine oxidase A) [µM]
1 | C#CCNC(C)(C)Cc1ccccc1 [CVT-PP019, N-propargylphentermine] | 53 | −16.4 ± 4.9 | −20.1 ± 4.4 | did not significantly affect | 5.7 | −9.4 ± 3.0 | −10.1 ± 6.6 | did not significantly affect | significantly protected | 114.6 | 77 ± 3 | 68 ± 2 |  | 
2 | C#CCNC(C)(C)Cc1ccc(Cl)cc1 [CVT-PP022, p-chloro-N-propargylphentermine] | 160 | 2.5 ± 5.2 | 5.9 ± 4.1 | did not significantly affect | 4 | 17.5 ± 5.6 | 12.6 ± 5.3 | did not significantly affect | significantly protected |  | 93 ± 2 | 89 ± 1 | 70.5 | 
3 | CNCCCN1c2ccccc2CCc2ccccc21 [Desipramine, reference compound] |  |  |  |  |  |  |  |  |  |  | 99 ± 3 |  |  | 
4 | NNCCc1ccccc1 [phenelzine.H2SO4, phenelzine, reference compound] |  |  |  |  | 26 |  |  |  |  |  |  |  |  | 130
5 | (−)-deprenyl [reference compound] |  |  |  |  |  |  |  |  |  | 97.2 |  |  | 90.3 | 
